Source: patent US9944654B2, “Nargenicin compounds and uses thereof as antibacterial agents” (priority 2014, dated 2018)
Converted amounts (≈) assume the structure as drawn. Like-named read-outs stand apart in the source and are kept apart here.

How the values were obtained:
[1] = target: T1, E. coli DnaE (DNA polymerase III α-subunit from Escherichia coli) (Escherichia coli, UniProt P10443); experiment: In vitro DnaE single enzyme assay (E. coli); assay type: biochemical
T1 construct: EcDnaE (E. coli DnaE residues 1-1160); 6xHis (N); made in house; host or cells: E. coli BL21(DE3)
Procedure: (§1) Plasmids encoding EcDnaE (E. coli DnaE residues 1-1160) and SaDnaE (S. aureus DnaE residues 1-1065) with 6×His N-terminal tags, were overexpressed in BL21(DE3) and BL21-AI cells (Invitrogen), respectively. Cells were grown in LB media to an OD ˜0.45 pelleted and then resuspended in Minimal Media, as described in Pryor et al. (1997, Protein Expr Purif. 10:309-19), and inducer (0.4 mM IPTG or 0.2% arabinose) for 21 hours at 18° C. at 220 rpm. Cells were then harvested, frozen for 20 minutes at −80° C. and thawed. Pellets were resuspended in 1× Talon buffer (50 mM Sodium Phosphate, 300 mM Sodium Chloride, pH 7.4) +10% glycerol +Roche PI's (-EDTA). Cells were lysed with two passes through a French press, then centrifuged for 45 minutes at 40,000 rpm (70Ti, Beckman). Supernatant was bound to 5 mL TALON resin (CLONTECH) for 1 hour at room temperature on Nutator. TALON resin was washed with 10 mM imidizole, and DnaE was eluted with 250 mM imidizole. Eluate was concentrated and run on a size exclusion column (SEC200, GE Healthcare) in the following buffer; 25 mM HEPES, 30 mM NaCl,1 mM CaCl2, 5% glycerol, pH 7.9. Pool SEC fractions based on SDS-PAGE run, aliquot, freeze, and store at -80° C.
(§2) DnaE was diluted in 50 mM potassium phosphate pH 7.5, 5 mM BME, 10% glycerol and 200 mM NaCl prior to use.
(§3) The purpose of the DnaE single enzyme assay is to determine the ability of compounds to inhibit the DNA polymerase III α-subunit homolog from Staphylococcus aureus or the α-subunit from Escherichia coli without the other components of the replication machinery. The DnaE single enzyme assay was a modified version of the method, Standard Pol III Assay Using Activated DNA and Four dNTPs, described by Butler et al., 2008, Methods in Molecular Medicine: New Antibiotic Targets 142:25-36. Briefly, in 96-well plates, enzyme was added to a mixture containing 30 mM Tris-HCl pH 7.5, 20% glycerol, 4 mM DTT, 10 mM Mg acetate, 0.025 mM dATP, 0.025 mM dGTP, 0.025 mM dc:TP, 0.011 mM ^3H-dTTP 1 mCi/ml (Perkin-Elmer), and 0.298 mg/mL Dnase I (Sigma) treated “activated” Calf Thymus DNA (Worthington Biochemical). The assay was set up so that 5 μl of compound was distributed to the plates, 90 μl of reaction mix was added to the compound, and 5 μl of enzyme was added to start the reaction. Assays were initiated by the addition of 0.8 μg/ml E. coli or 0.05 μg/ml S. aureus DnaE, incubated for 30 min at 30° C., and terminated by the addition of a 20% trichloroacetic acid and 0.2% sodium pyrophosphate solution. Precipitated labeled DNA was collected on Glass-fiber Filtermat A using Micro96 Harvester, and the filters were washed, dried, and counted in a Microbeta Trilux (Perkin Elmer). Serial dilutions of compounds (in DMSO) were added to the plates before enzyme addition.

[2] = target: T2, S. aureus DnaE (DNA polymerase III α-subunit homolog from Staphylococcus aureus) (Staphylococcus aureus, UniProt Q5HF71); experiment: biochemical; assay type: biochemical
T2 construct: SaDnaE (S. aureus DnaE residues 1-1065); 6xHis (N); made in house; host or cells: E. coli BL21-AI
T2 sequence (Q5HF71 1-1065): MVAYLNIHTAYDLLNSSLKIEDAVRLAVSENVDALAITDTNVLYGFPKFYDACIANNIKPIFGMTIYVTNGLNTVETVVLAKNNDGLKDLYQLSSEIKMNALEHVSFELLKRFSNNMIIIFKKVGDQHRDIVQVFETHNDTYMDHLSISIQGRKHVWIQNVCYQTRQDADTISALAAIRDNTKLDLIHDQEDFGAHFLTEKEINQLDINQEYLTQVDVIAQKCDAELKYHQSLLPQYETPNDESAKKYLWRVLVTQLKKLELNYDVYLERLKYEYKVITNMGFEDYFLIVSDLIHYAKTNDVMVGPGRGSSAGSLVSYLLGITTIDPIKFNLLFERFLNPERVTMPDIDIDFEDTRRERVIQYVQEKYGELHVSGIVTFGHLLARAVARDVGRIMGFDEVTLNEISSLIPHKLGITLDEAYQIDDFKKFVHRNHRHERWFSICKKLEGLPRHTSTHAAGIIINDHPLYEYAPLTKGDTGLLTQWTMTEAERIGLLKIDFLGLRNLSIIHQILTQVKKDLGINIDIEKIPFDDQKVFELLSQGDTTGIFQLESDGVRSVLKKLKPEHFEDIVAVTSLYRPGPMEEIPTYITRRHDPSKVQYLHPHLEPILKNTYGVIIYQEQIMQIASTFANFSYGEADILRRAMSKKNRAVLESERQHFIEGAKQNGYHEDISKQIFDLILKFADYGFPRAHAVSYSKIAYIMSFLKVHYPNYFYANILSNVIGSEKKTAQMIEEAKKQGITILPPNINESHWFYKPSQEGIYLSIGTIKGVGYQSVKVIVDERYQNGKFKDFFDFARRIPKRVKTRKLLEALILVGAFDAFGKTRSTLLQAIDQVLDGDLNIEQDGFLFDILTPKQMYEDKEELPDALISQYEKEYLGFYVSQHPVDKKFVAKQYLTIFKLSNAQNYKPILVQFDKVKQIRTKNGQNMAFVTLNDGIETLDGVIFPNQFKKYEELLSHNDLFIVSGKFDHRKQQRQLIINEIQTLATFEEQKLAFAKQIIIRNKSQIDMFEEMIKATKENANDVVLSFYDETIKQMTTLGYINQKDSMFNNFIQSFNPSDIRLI
Procedure: as §1, §2, §3

[3] = test system: Escherichia coli MB5747 (LS 883, tolC); experiment: microbe, parasite or virus in culture; assay type: cell-based; conditions: * = some reduction of growth versus control at […]; for MIC: Escherichia coli, read-out: E. coli LS883 tolC (MIC), MHII broth
[4] = test system: Pseudomonas aeruginosa MB5890 (CB1101, efflux-deleted); experiment: microbe, parasite or virus in culture; assay type: cell-based; conditions: * = some reduction of growth versus control at […]; for MIC: Pseudomonas aeruginosa, read-out: P. aeruginosa MB5890 efflux-del (MIC), MHII broth
[5] = test system: Staphylococcus aureus MB6266 (MRSA COL); experiment: Nargenicin antibacterial assay (MIC), S. aureus; assay type: cell-based; conditions: * = some reduction of growth versus control at […]; for MIC: Staphylococcus aureus, MRSA, read-out: S. aureus COL (MIC), MHII broth + 50% human serum
[6] = test system: Streptococcus pneumoniae MB6357 (CL 2883); experiment: Nargenicin antibacterial assay (MIC), S. pneumoniae; assay type: cell-based; conditions: * = some reduction of growth versus control at […]; for MIC: Streptococcus pneumoniae, read-out: S. pneumoniae MB2883 (MIC), Isosensitest broth
[7] = read-out: E. coli DnaE IC50 (converted)
[8] = read-out: S. aureus DnaE IC50 (converted)

T1 sequence (P10443 whole entry, the tested form may be a part): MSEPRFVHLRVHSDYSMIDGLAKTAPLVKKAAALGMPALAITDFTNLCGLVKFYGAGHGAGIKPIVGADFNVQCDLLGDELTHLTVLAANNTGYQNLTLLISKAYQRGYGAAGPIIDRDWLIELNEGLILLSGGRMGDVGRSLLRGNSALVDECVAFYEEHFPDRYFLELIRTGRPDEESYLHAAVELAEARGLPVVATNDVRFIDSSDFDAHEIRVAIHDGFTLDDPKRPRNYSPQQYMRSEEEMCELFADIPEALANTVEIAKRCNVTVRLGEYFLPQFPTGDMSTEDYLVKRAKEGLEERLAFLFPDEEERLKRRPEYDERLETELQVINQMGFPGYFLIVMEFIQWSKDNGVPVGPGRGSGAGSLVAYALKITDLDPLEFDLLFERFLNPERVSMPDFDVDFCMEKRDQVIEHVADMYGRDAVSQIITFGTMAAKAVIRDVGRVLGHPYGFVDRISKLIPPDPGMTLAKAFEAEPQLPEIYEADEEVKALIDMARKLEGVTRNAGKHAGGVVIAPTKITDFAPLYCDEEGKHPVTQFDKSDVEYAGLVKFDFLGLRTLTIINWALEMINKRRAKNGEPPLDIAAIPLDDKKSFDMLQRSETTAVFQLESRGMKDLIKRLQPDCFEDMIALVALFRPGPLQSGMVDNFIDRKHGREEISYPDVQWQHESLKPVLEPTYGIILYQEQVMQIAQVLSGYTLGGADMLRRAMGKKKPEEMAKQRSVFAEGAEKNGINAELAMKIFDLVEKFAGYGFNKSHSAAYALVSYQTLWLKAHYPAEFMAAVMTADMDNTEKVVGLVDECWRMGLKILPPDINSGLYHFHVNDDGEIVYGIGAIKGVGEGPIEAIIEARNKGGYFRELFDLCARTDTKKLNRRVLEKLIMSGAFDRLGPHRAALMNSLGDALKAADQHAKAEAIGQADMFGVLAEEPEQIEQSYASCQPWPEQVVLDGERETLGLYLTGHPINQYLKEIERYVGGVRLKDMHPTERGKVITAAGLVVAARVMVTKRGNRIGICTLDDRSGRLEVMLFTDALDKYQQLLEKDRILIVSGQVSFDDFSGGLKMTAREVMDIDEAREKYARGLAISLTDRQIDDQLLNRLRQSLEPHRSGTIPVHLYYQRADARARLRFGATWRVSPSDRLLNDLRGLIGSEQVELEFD

Row | Compound | IC50 [1, 7] | IC50 ([2]; S. aureus DnaE IC50) | MIC [3] | MIC [4] | MIC [5] | MIC [6] | IC50 ([1]; E. coli DnaE IC50) | IC50 [2, 8] | IC50 ([2]; read-out: S. aureus DnaE IC50) | E. coli LS883 tolC (MIC) ([3]; MHII broth) | P. aeruginosa MB5890 efflux-del (MIC) ([4]; MHII broth) | S. aureus COL (MIC) ([5]; MHII broth + 50% human serum) | S. pneumoniae MB2883 (MIC) ([6]; Isosensitest broth)
1 | CO[C@H]1C[C@H]2C=CC3C4[C@H](O)[C@@H](C)[C@@H](OC(=O)c5ccc[nH]5)[C@@H]3O[C@]42/C(C)=C/[C@@H](C)[C@@H]([C@@H](C)OS(=O)(=O)O)OC1=O [Example 198] | 20.1 µM | < 0.0101 µM | 4 µg/mL (≈ 6.72 µM) | 64 µg/mL (≈ 107 µM) | 4 µg/mL | > 128 µg/mL | – | – | – | – | – | – | –
2 | CO[C@H]1C[C@H]2C=C[C@H]3[C@H]4O[C@]2(/C(C)=C/[C@@H](C)[C@@H]([C@@H](C)OC(=O)NC(C)C)OC1=O)[C@@H]3[C@H](O)[C@@H](C)[C@H]4OC(=O)c1ccc[nH]1 [Example 9] | 49.9 µM | 0.0333 µM | 8 µg/mL (≈ 13.3 µM) | > 128 µg/mL | 8 µg/mL | 32 µg/mL (≈ 53.3 µM) | – | – | – | – | – | – | –
3 | CO[C@H]1C[C@H]2C=C[C@H]3[C@H]4O[C@]2(/C(C)=C/[C@@H](C)[C@@H]([C@@H](C)O)OC1=O)[C@@H]3[C@H](O)C(C)[C@@H]4NCCN1CCCCC1.O=C(O)C(F)(F)F (stereo partly drawn) [Example 156] | – | – | > 128 µg/mL | > 128 µg/mL | > 128 µg/mL | > 128 µg/mL | > 155 µM | 32.5 µM | – | – | – | – | –
4 | CO[C@H]1C[C@H]2C=C[C@H]3[C@H]4O[C@]2(/C(C)=C/[C@@H](C)[C@@H]([C@@H](C)OC(=O)NNC(N)=O)OC1=O)[C@@H]3[C@H](O)[C@@H](C)[C@H]4OC(=O)c1ccc[nH]1 [Example 23] | 48.6 µM | < 0.00973 µM | 4 µg/mL (≈ 6.49 µM) | 64 µg/mL (≈ 104 µM) | 8 µg/mL | > 128 µg/mL | – | – | – | – | – | – | –
5 | CO[C@H]1CC2C=C[C@H]3[C@H]4O[C@]2(/C(C)=C/[C@@H](C)[C@@H]([C@@H](C)OC(=O)NN)OC1=O)[C@@H]3[C@H](O)[C@@H](C)[C@H]4OC(=O)c1ccc[nH]1 (stereo partly drawn) [Example 18] | 105 µM | < 0.0105 µM | 4 µg/mL (≈ 6.97 µM) | > 128 µg/mL | 8 µg/mL | 128 µg/mL (≈ 223 µM) | – | – | – | – | – | – | –
6 | CO[C@H]1C[C@H]2C=C[C@H]3[C@H]4O[C@]2(/C(C)=C/[C@@H](C)[C@@H]([C@@H](C)O)OC1=O)[C@@H]3[C@H](O)C(C)[C@H]4C#N (stereo partly drawn) [Example 188, (3R,4S,7S,8aS,10aR,11R,12S,14R,14aS,14bS,E)-14-hydroxy-4-((R)-1-hydroxyethyl)-7-methoxy-1,3,13-trimethyl-6-oxo-3,4,6,7,8,8a,10a,11,12,13,14,14a-dodecahydro-11,14b-epoxynaphtho[2,1-e]oxecine-12-carbonitrile] | > 232 µM | 0.232 µM | 32 µg/mL (≈ 74.2 µM) | 64 µg/mL (≈ 148 µM) | 128 µg/mL | 128 µg/mL (≈ 297 µM) | – | – | – | – | – | – | –
7 | CO[C@H]1CC2C=C[C@H]3[C@H]4O[C@]2(/C(C)=C/[C@@H](C)[C@@H](C(C)O)OC1=O)[C@@H]3[C@H](O)[C@@H](C)[C@H]4OC(=O)c1ccc[nH]1 (stereo partly drawn) [Nar, Nargenicin] | 0.776 to 5.04 µM | – | – | – | – | – | – | – | 0.000388 to 0.0116 µM | 0.25 to 0.5 µg/mL | 8 µg/mL | 0.25 to 0.5 µg/mL | >64 µg/mL
8 | CO[C@H]1C[C@H]2C=C[C@H]3[C@H]4O[C@]2(/C(C)=C/[C@@H](C)[C@@H]([C@@H](C)O)OC1=O)[C@@H]3C(=O)C(C)[C@H]4C[N+](=O)[O-] (stereo partly drawn) [Example 162, (3R,4 S ,7S ,8aS ,10aR,11R,12 S ,14aR,14b S,E)-4-((R)-1-hydroxyethyl)-7-methoxy-1,3,13-trimethyl-12-(nitromethyl)-3 ,4,8,8a,10a,11,12,13-octahydro-11,14b-epoxynaphtho [2,1-e]oxecine-6,14(7H,14aH)-dione] | – | – | > 128 µg/mL | > 128 µg/mL | > 128 µg/mL | > 128 µg/mL | > 216 µM | 17.3 µM | – | – | – | – | –
9 | CO[C@H]1C[C@H]2C=C[C@H]3[C@H]4O[C@]2(/C(C)=C/[C@@H](C)COC1=O)[C@@H]3[C@H](O)[C@@H](C)[C@H]4OC(=O)c1ccc[nH]1 [Example 47, (3R,7S,8aS,10aR,11R,12R,13R,14R,14aS,14bS,E)-14-hydroxy-7-methoxy-1,3,13-trimethyl-6-oxo-3,4,6,7,8,8a,10a,11,12,13,14,14a-dodecahydro-11,14b-epoxynaphtho[2,1-e]oxecin-12-yl 1H-pyrrole-2-carboxylate] | > 212 µM | 0.0891 µM | 16 µg/mL (≈ 33.9 µM) | > 128 µg/mL | 64 µg/mL | > 128 µg/mL | – | – | – | – | – | – | –
10 | CO[C@H]1C[C@H]2C=C[C@H]3[C@H]4O[C@]2(/C(C)=C/[C@@H](C)[C@@H]([C@@H](C)OC(=O)NC(C)(CO)CO)OC1=O)[C@@H]3[C@H](O)[C@@H](C)[C@H]4OC(=O)c1ccc[nH]1 [Example 21] | > 155 µM | < 0.00928 µM | 8 µg/mL (≈ 12.4 µM) | 128 µg/mL (≈ 198 µM) | 16 µg/mL | 128 µg/mL (≈ 198 µM) | – | – | – | – | – | – | –
11 | CO[C@H]1C[C@H]2C=CC3C4[C@H](O)[C@@H](C)[C@@H](OC(=O)c5ccc[nH]5)[C@@H]3O[C@]42/C(C)=C/[C@@H](C)[C@@H]([C@@H](C)OC(=O)C(=O)OCCN2CCCC2)OC1=O.O=C(O)C(F)(F)F [Example 212] | 3.76 µM | < 0.00751 µM | 4 µg/mL | 128 µg/mL | 4 µg/mL | > 128 µg/mL | – | – | – | – | – | – | –
